Molecules are shown by their SMILES.

The nature of assay [1]: HORAC Hydroxyl radical antioxidant capacity assay. An excerpt: HORAC Assay: Hydroxyl Antioxidant Capacity In Vitro
The commercial kit “Oxiselect Hydroxyl Radical Antioxidant Capacity (HORAC) activity assay” (Cell Biolabs).
The HORAC assay esxpresses the compound antiradical capacity towards the hydroxyl radical OH′ and is based on the oxidation of a fluorescent probe by hydroxyl radicals through a hydrogen transfer process (HAT). Hydroxyl radicals are produced by a radical initiator hydroxyl and by Fenton's reagent, which quenches the fluorescent probe over time. The antioxidants present in the sample block the oxidation by the hydroxyl radical of the fluorescent probe until the antioxidant activity in the sample runs out. The remaining hydroxyl radicals destroy the fluorescence of the fluorescent probe. The antioxidant capacity of the sample is related to the fluorescence decay curve, which usually is represented as the area under the curve (AUC). The AUC is used to quantify the total antioxidant activity of the hydroxyl radical in a sample and is compared to the curve of an antioxidant standard.
The compounds of the invention were tested at the following concentrations: 13.5 μM; 27 μM, 13.5 mM; 27 mM.
For comparison purposes, also samples of the compound monofurfurylidene-2.4-sorbitol defined below by the acronym ARGB11, were in this case tested under the same two concentrations, as a reference compound according to EP0345362 mentioned above as the background art of substances with free radical inhibition activity.

For assay [2], the system named is human keratinocytes NCTC2544. Put plainly: MTT assay with induced oxidative stress (H2O2). The class given is cell-based. The following applies: 16 h pretreatment, then 1 mM H2O2, NCTC2544. As for the experimental part:
The immortalized line of human keratinocytes NCTC2544 is used (Perry V. P. et al., 1957), cultured in sterile flasks ([…]), incubated at 37° C. in a humid atmosphere at 5% CO2 in RPMI culture medium added with bovine fetal serum (FBS), 2 mm glutamine, 1% non-essential amino acids, in the presence of 1% penicillin and streptomycin. The 1:3 split is done every 2 days upon achieving the monolayer by washing with 1×PBS (phosphate buffer without Ca^2+ and Mg^2+) and detachment of cells with a trypsin-EDTA solution at 37° C. for 2 minutes. The cells were kept in culture in 25 cm^3 sterile flasks and incubated at 37° C. in a humid atmosphere at 5% CO2.
Negative control: untreated cells in RPMI medium added to 2.5% fetal bovine serum (FBS), 1% non-essential amino acids (NEAA), 1% of a penicillin and streptomycin mixture (Pen-Strep Mix), and kept in (96 well) 25 cm^2 culture plates at 37° C. and 5% CO2 (in the dark).
Positive control: cells treated for 2 h with 1 mM hydrogen peroxide in RPMI medium added to 2.5% fetal bovine serum (FBS), 1% non-essential amino acids (NEAA), 1% of a penicillin and streptomycin mixture (Pen-Strep Mix), and kept in (96 well) 25 cm^2 culture plates at 37° C. and 5% CO2 (in the dark).
MTT with Induced Oxidative Stress-NCTC 2544
Through this method it is possible to study the protective effects of such compounds on cells then subjected to oxidative stress. The induction of oxidative stress is carried out by incubation with hydrogen peroxide, an agent inducing the production of oxidative damage in cells through the formation of ROS. Any protective effects can be determined through the evaluation of the cell viability post oxidative stress of cells pretreated/pre-exposed to the active compounds to be tested, compared to cells subjected to the same oxidative stress. A greater cell viability will correspond to a protective effect of the compounds tested.
The assay was conducted in accordance with the method described by Coda and collaborators (Coda et al., 2012), with some changes. Human keratinocytes NCTC2544 were seeded in a 96-well plate at the density of 5*10^4 cells/well and incubated at 37° C. until reaching about 80% confluence.
Then, the cells were incubated for 16 hours with the active compounds to be tested and the respective controls at the following concentrations: 13.5 μM and 27 μM. The dilutions were prepared starting from 1000× stock in DMSO, sterile-filtered and using RPMI medium added to 2.5% fetal bovine serum (FBS), 1% non-essential amino acids (NEAA), 1% of a penicillin and streptomycin mixture (Pen-Strep Mix). Cells treated with H2O2 1 mM were used as a positive control; cells kept in culture medium alone (RPMI 2.5% FCS) were used instead as a negative control. After 16 hours of pretreatment, the cells were washed with PBS 1× and incubated for 90 minutes with a […] H2O2 solution (Sigma-Aldrich, St. Louis, Mo., USA) in serum-free medium, in the dark, at 37° C. and 5% CO2.
After the step of induction of the oxidative stress, the cell viability of the samples of the above compounds of the invention was evaluated in accordance with the method described by Mosmann T. Rapid colorimetric assay for cellular growth and survival: application to proliferation and cytotoxicity assays. J Immunol Methods. 1983 Dec. 16; 65(1-2):55-63.
The data were expressed as percentage of cell viability compared with control cells (ctr) not stressed, according to the following formula: % cell viability/ctr=(Abs sample/Abs ctr)·100
All the assays were performed at least two times in duplicate.
Background: Tetrazolium dyes change colour on reduction, which living cells bring about.

[3] abbreviates: higher dosages (13.5 μM and 27 μM).
Where [4] appears, read: lower concentrations 13.5 μM and 27 μM.

Consider `OCC1OC(c2ccco2)OC(CO)C1O` (stereo not drawn) [Xylitil furfural, xylitil furfural], for which the “HORAC (Hydroxyl Radical Antioxidant Capacity)” value worked out at 418.69 μMole GAE/L in assay [1] (13.5 μM), 524.692 μMole GAE/L in assay [1] (27 μM), 897.479 μMole GAE/L in assay [1] (13.5 mM) and 1242.582 μMole GAE/L in assay [1] (27 mM). In addition, the “HORAC activity compared with reference ARGB11” value in assay [1] (setting [3]) is “higher activity than the selected reference ARGB11”; in assay [1] (setting [4]), “higher than the selected reference ARGB11”. Besides, the “% protection” value in assay [2] (13.5 μM) is reported as 59.554%; in assay [2] (13.5 μM, listed as xylitil furfural), “remarkable”; in assay [2] (27 μM), 33.651%.
On to `OCC(O)C1OC(c2ccccc2)OC(CO)C1O` (stereo not drawn) [Sorbityl benzal, sorbityl benzal], for which the “HORAC (Hydroxyl Radical Antioxidant Capacity)” value in assay [1] (13.5 μM) is 31.04 μMole GAE/L; in assay [1] (27 μM), 40.110 μMole GAE/L; in assay [1] (13.5 mM), 308.497 μMole GAE/L; in assay [1] (27 mM), 408.795 μMole GAE/L. Further, the “HORAC activity compared with reference ARGB11” value in assay [1] (setting [3]) and in assay [1] (setting [4]) was “fully comparable activity” throughout. In addition, the “% protection” value turned out to be 11.673% in assay [2] (13.5 μM) and 20.439% in assay [2] (27 μM).
For the molecule `O=C(OCC1OC(c2ccco2)OC(C(COC(=O)c2ccccc2)OC(=O)c2ccccc2)C1OC(=O)c1ccccc1)c1ccccc1` (stereo not drawn) [Tetrabenzoyl sorbityl furfural, tetrabenzoyl sorbityl furfural], the “HORAC (Hydroxyl Radical Antioxidant Capacity)” value came out at 37.65 μMole GAE/L in assay [1] (13.5 μM), 41.485 μMole GAE/L in assay [1] (27 μM), 300.856 μMole GAE/L in assay [1] (13.5 mM) and 211.479 μMole GAE/L in assay [1] (27 mM). Moreover, the “HORAC activity compared with reference ARGB11” value in assay [1] (setting [3]) and in assay [1] (setting [4]) was “fully comparable activity” throughout. For the same molecule, the “% protection” value in assay [2] (13.5 μM) worked out at 36.035%; in assay [2] (27 μM), 8.725%.
With `CC(=O)OCC1OC(c2ccco2)OC(C(COC(C)=O)OC(C)=O)C1OC(C)=O` (stereo not drawn) [Tetracetyl sorbityl furfural, tetracetyl sorbityl furfural], the “HORAC (Hydroxyl Radical Antioxidant Capacity)” value is 797.50 μMole GAE/L in assay [1] (13.5 μM), 171.083 μMole GAE/L in assay [1] (27 μM), 330.960 μMole GAE/L in assay [1] (13.5 mM) and 428.775 μMole GAE/L in assay [1] (27 mM). For the same molecule, the “HORAC activity compared with reference ARGB11” value is “fully comparable activity” in assay [1] (setting [3]) and “higher than the selected reference ARGB11” in assay [1] (setting [4]). Besides, the “% protection” value is 34.385% in assay [2] (13.5 μM); 49.201% in assay [2] (27 μM); “remarkable” in assay [2] (27 μM, listed as tetracetyl sorbityl furfural).
As to `COc1cc(C2OC(CO)C(O)C(C(O)CO)O2)ccc1O` (stereo not drawn) [Sorbityl vanillinal, sorbityl vanillinal], the “HORAC (Hydroxyl Radical Antioxidant Capacity)” value amounted to 70.29 μMole GAE/L in assay [1] (13.5 μM), 115.422 μMole GAE/L in assay [1] (27 μM), 3544.098 μMole GAE/L in assay [1] (13.5 mM) and 3261.945 μMole GAE/L in assay [1] (27 mM). The “HORAC activity compared with reference ARGB11” value in assay [1] (setting [3]) is recorded as “higher activity than the selected reference ARGB11”; in assay [1] (setting [4]), “higher than the selected reference ARGB11”. The “% protection” value in assay [2] (13.5 μM) is given as 11.320%; in assay [2] (27 μM), 22.766%.

(Values after US10550094B2, “Compounds having antioxidant activity against free radicals and anti-inflammatory activity, and corresponding pharmaceutical or cosmetic compositions for skin care” (GIULIANI S.P.A., priority 2015, dated 2020).)
